Data taken from ChEMBL document CHEMBL1201862, “PubChem BioAssay data set” (2004).
Active and inactive are the calls of the source.

Columns and labels:
[1] = target: Metabotropic glutamate receptor 3 (Rattus norvegicus, UniProt P31422); assay: mGlu3 negative allosteric modulator potency, dose response, HEK/GIRK cells, thallium flux, rat (AID 651839); assay type: functional
[2] = inhibitors of HIV Env-driven cell fusion, dose response, cherry-pick (AID 652057); assay type: functional, cell-based
[3] = cells; settings: HEK293
[4] = cells; settings: A549
[5] = A549 cell cytotoxicity, dose response, cytotoxicity control, 24 h, CellTiter-Glo luminescence, cherry-picks (AID 1053115); assay type: functional, cell-based; settings: A549, 24 h
[6] = CFTR ΔF508 corrector activity in bronchial cells, dose response, human bronchial epithelial cells, plate reader, cherry-pick, two tests (AID 743267); assay type: functional, cell-based
[7] = cells; assay type: functional, cell-based; settings: HEK-CNG
[8] = target: Galanin receptor type 3 (Homo sapiens, UniProt O60755); assay: Fluorescence-based cell-based primary high throughput dose response assay to identify antagonists of the Galanin Receptor 3 (GalR3).; assay type: functional
[9] = target: T1, Polyadenylate-binding protein 1 (Homo sapiens, UniProt P11940); assay: PABP1 MLLE–PAM2 binding inhibitor potency, dose response, biochemical, fluorescence polarization, FITC-PAM2 peptide (AID 602259); assay type: functional; settings: read-out: IC50_Mean
[10] = target: T1, Polyadenylate-binding protein 1; assay: PABP1 MLLE–PAM2 interaction inhibitors, dose response, miRNA deadenylation inhibitor project, biochemical, fluorescence polarization, Cy5-PAM2 peptide, secondary (AID 602260); assay type: functional; settings: read-out: IC50_Mean
[11] = target: SWI/SNF-related matrix-associated actin-dependent regulator of chromatin subfamily A member 2 (Homo sapiens, UniProt P51531); assay: Luminescence-based cell-based high throughput dose response assay to identify activators of the function of SWI/SNF related, matrix associated, actin dependent regulator of chromatin, subfamily a, member 2 (SMARCA2, BRM).; assay type: functional
[12] = Counterscreen for activators of the function of SWI/SNF related, matrix associated, actin dependent regulator of chromatin, subfamily a, member 2 (SMARCA2, BRM): Luminescence-based cell-based high throughput dose response assay to identify non-selective compounds using the VP16 reporter assay.; assay type: functional
[13] = Cytotoxicity screening for potential Inhibitors of Bacterial Capsule Biogenesis (4).; assay type: functional
[14] = HepG2 cell cytotoxicity, dose response, cytotoxicity control, cherry-picks, set 5 (AID 1053118); assay type: functional, cell-based
[15] = HEK293 cell cytotoxicity, dose response, cytotoxicity control, cherry-picks, set 5 (AID 1053117); assay type: functional, cell-based
[16] = A549 cell cytotoxicity, dose response, cytotoxicity control, cherry-picks, 26 µM top dose (AID 1053119); assay type: functional, cell-based
[17] = cytotoxicity in ldlA[mSR-BI] CHO cells, dose response, cytotoxicity control for SR-BI HDL uptake inhibitor project, cell-based, CellTiter-Glo, 24 h, powder samples, set 7 (AID 624026); assay type: functional
[18] = target: T2, Scavenger receptor class B member 1 (Mus musculus, UniProt Q61009); assay: inhibitors of SR-BI-mediated HDL uptake, dose response, cell-based, ldlA[mSR-BI] CHO, DiI fluorescence, dry powder, set 10 (AID 624029); assay type: functional
T2 sequence (Q61009 whole entry): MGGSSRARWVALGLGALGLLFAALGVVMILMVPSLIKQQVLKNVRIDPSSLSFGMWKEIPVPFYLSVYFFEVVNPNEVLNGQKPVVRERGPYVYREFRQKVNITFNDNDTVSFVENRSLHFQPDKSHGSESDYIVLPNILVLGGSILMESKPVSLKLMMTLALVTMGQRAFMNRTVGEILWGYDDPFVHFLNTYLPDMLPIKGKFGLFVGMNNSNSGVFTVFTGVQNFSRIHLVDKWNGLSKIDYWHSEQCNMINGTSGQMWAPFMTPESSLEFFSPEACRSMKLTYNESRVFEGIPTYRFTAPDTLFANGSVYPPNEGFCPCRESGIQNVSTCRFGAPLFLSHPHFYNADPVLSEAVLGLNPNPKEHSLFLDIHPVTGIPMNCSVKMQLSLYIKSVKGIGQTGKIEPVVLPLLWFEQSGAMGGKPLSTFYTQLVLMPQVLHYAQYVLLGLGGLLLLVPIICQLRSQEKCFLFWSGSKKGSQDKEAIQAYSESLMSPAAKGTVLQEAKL

[19] = test system: HepG2; assay: HepG2 cell cytotoxicity, dose response, cytotoxicity control, cherry-picks, set 2 (AID 687002); assay type: functional, cell-based; settings: Homo sapiens

T1 sequence (P11940 whole entry): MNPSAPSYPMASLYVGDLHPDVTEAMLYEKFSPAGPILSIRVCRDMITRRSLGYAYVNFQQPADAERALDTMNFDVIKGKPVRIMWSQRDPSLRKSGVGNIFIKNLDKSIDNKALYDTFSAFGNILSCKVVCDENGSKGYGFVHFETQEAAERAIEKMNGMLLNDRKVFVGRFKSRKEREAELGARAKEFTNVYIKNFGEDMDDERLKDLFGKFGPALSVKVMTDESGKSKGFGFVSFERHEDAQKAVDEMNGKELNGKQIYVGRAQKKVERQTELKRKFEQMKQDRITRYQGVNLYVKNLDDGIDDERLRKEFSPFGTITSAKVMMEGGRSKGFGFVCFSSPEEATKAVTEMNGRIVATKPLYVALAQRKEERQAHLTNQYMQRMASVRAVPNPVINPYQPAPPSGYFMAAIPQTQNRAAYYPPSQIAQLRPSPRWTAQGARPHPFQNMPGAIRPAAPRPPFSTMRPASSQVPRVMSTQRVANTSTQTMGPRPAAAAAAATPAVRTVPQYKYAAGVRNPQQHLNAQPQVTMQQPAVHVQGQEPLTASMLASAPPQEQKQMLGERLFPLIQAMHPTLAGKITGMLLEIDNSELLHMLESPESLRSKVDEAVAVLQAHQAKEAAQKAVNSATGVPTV
Chain of Metabotropic glutamate receptor 3 (P31422 whole entry, the tested form may be a part): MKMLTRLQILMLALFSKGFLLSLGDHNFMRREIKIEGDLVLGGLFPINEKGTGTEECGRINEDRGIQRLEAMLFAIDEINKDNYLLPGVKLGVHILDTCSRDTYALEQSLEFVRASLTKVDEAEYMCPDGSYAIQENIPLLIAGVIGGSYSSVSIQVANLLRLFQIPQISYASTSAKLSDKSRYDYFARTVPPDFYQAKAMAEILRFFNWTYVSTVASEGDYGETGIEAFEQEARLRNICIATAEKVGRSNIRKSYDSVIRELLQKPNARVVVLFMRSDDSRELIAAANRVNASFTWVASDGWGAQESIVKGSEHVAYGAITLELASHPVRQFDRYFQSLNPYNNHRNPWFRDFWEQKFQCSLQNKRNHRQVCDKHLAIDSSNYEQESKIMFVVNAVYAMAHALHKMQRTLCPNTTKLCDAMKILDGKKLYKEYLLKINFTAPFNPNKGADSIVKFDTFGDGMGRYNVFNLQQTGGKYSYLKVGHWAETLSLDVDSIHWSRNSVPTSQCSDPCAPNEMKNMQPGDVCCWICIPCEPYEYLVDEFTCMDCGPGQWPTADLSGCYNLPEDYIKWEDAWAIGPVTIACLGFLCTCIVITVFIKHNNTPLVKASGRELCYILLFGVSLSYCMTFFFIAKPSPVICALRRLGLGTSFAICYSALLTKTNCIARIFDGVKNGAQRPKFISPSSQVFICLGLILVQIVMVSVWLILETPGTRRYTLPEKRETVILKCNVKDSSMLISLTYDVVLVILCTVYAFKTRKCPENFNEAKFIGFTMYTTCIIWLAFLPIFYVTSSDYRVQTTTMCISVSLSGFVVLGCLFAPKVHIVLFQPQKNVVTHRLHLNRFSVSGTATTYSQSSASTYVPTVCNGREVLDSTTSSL
Chain of SWI/SNF-related matrix-associated actin-dependent regulator of chromatin subfamily A member 2 (P51531 whole entry): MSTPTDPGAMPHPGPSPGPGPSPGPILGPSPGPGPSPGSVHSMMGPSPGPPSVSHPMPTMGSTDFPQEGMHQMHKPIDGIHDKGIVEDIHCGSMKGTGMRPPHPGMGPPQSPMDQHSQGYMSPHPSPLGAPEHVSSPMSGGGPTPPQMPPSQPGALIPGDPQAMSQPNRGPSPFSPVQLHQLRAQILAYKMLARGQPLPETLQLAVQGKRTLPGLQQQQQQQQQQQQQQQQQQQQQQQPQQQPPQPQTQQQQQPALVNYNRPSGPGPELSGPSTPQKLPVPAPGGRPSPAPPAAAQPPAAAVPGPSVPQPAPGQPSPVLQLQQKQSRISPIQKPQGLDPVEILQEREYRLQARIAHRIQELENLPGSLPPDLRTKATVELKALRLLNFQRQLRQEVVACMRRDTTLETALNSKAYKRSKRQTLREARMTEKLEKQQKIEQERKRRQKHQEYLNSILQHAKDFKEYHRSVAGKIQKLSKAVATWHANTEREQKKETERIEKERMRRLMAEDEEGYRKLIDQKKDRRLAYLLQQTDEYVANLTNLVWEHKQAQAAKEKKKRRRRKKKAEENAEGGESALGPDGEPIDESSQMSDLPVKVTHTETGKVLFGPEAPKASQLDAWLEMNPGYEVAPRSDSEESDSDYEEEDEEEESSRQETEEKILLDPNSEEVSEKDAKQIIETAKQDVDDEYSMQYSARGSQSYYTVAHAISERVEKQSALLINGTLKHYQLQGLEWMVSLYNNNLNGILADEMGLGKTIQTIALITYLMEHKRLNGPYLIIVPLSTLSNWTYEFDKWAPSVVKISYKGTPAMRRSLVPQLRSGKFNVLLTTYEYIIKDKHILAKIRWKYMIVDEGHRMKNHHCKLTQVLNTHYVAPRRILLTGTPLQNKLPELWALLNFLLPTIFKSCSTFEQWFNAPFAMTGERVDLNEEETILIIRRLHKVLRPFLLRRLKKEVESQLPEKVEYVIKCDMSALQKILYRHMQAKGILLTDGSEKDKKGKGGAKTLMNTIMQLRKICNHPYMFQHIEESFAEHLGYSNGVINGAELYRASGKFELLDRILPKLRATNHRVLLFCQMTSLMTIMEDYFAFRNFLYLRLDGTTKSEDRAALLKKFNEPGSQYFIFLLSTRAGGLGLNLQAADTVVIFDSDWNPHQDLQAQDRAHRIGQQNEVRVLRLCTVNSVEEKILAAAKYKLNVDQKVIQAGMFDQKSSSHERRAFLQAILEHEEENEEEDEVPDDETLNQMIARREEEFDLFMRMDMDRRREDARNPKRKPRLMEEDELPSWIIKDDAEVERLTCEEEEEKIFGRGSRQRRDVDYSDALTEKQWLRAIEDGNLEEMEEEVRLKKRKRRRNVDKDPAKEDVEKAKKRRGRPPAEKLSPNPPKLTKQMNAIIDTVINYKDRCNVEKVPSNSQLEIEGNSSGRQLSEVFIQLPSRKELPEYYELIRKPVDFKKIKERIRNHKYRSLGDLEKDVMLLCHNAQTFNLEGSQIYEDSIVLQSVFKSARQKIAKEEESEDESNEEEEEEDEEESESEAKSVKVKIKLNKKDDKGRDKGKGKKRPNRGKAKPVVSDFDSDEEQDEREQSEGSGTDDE
Chain of Galanin receptor type 3 (O60755 whole entry): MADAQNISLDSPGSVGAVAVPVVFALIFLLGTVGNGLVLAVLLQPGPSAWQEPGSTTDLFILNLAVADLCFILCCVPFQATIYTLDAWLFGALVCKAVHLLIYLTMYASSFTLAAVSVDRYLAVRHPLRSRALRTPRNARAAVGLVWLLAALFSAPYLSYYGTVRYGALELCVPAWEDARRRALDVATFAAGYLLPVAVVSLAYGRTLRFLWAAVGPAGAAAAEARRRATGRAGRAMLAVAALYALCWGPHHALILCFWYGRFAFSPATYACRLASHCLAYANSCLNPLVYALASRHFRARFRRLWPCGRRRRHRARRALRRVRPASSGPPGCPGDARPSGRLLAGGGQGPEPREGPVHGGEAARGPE

Compound: COc1ccc(C#Cc2ccc(C(=O)N3CCC(CO)C3)cc2)c(F)c1 (centres undefined)
- IC50 [1]: 6.85 µM (active)

Compound: C=CCN1C(=S)CC(c2ccccc2)=Nc2ccccc21
- AC50 [2]: 47.9 µM (active)
- AC50 [3]: > 52 µM (inactive)
- AC50 [4]: > 52 µM (inactive)

Compound: COc1ccccc1CN1CC[C@@H]2[C@@H](CO)Nc3ccc(C#Cc4ccccc4)cc3[C@@H]21
- AC50 [5]: > 60 µM (inactive)

Compound: COc1cccc(-c2ccc([C@@H]3[C@@H]4CN(S(=O)(=O)c5cccc(OC)c5)C[C@H]3N4)cc2)c1
- AC50 [6]: 13.5 µM (active)

Compound: COc1cccc2[nH]c3c(N4CCCC(C)C4)ncnc3c12 (centres undefined)
- EC50 [7]: > 29.9 µM (inactive)
- IC50 [8]: 0.4 µM (active)

Compound: Cn1sccc1=O
- IC50 [9]: > 66 µM (inactive)
- IC50 [10]: > 66 µM (inactive)
- EC50 [11]: > 91.2 µM (inactive)
- EC50 [12]: > 91.2 µM (inactive)

Compound: COc1cc(NC(=O)c2ccc3nc(N)sc3c2)ccn1
- CC50 [13]: 172 µM (active)

Compound: O=C(Nc1ccc(Cl)cc1)N1C[C@H]2[C@@H](c3ccccc31)[C@H](CO)N2CC1CCCC1
- AC50 [14]: 35.8 µM (active)
- AC50 [15]: 40.4 µM (active)
- AC50 [16]: 47.5 µM (active)

Compound: CC(C)NC(=O)Nc1ccc2c(c1)C(=O)N([C@@H](C)CO)C[C@H](C)[C@@H](CN(C)S(=O)(=O)c1ccc(Cl)cc1)O2
- AC50 [17]: > 70 µM (inactive)
- AC50 [18]: > 70 µM (inactive)

Compound: O=C(CSc1ncnc2c1cnn2-c1ccccc1)Nc1ccc2c(c1)OCO2
- AC50 [19]: 14 µM (active)
